Assay results as given in PubChem BioAssay (NCI).
Several values for one entry are separate records, joined by “and”; a condition that tells them apart may be missing. Equal values may be shown once.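 Values below derive from 48-hour exposures of cells grown in 96-well plates, with endpoints linearly interpolated between the two concentrations bracketing the appropriate inhibition level. GI50 marks 50% less growth. TGI is the concentration that stops growth completely.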

Columns and labels:
Test in all cases: NCI tumour cell line growth inhibition, 48 h
IGROV1 ovarian = tested on: IGROV1 ovarian
SK-OV-3 ovarian = tested on: SK-OV-3 ovarian
LOX IMVI melanoma = tested on: LOX IMVI melanoma
UACC-62 melanoma = tested on: UACC-62 melanoma
T-47D breast = tested on: T-47D breast
OVCAR-5 ovarian = tested on: OVCAR-5 ovarian
NCI-H522 lung = tested on: NCI-H522 lung
SN12C renal = tested on: SN12C renal
NCI/ADR-RES ovarian = tested on: NCI/ADR-RES ovarian
MDA-MB-231 breast = tested on: MDA-MB-231 breast

| Compound | GI50 (IGROV1 ovarian) | TGI (IGROV1 ovarian) | GI50 (SK-OV-3 ovarian) | TGI (SK-OV-3 ovarian) | GI50 (LOX IMVI melanoma) | TGI (LOX IMVI melanoma) | GI50 (UACC-62 melanoma) | TGI (UACC-62 melanoma) | GI50 (T-47D breast) | TGI (T-47D breast) | GI50 (OVCAR-5 ovarian) | TGI (OVCAR-5 ovarian) | GI50 (NCI-H522 lung) | TGI (NCI-H522 lung) | GI50 (SN12C renal) | TGI (SN12C renal) | GI50 (NCI/ADR-RES ovarian) | TGI (NCI/ADR-RES ovarian) | GI50 (MDA-MB-231 breast) | TGI (MDA-MB-231 breast) |
| --- | --- | --- | --- | --- | --- | --- | --- | --- | --- | --- | --- | --- | --- | --- | --- | --- | --- | --- | --- | --- |
| C[C@]12CC[C@@H]3c4cc(OC(F)F)c(OS(N)(=O)=O)cc4CC[C@H]3[C@@H]1CC[C@@H]2OS(N)(=O)=O | 1.88 µM | 28.7 µM | 6.14 µM | 33.2 µM | 1.25 µM | 19.1 µM | 1.38 µM | 16.8 µM | 1.56 µM | 31.7 µM | 4.73 µM | 26.5 µM | 0.689 µM | 12.7 µM | 2.07 µM | 21.4 µM | 0.696 µM | 28.9 µM | 3.05 µM | 28.2 µM |
| COc1cc(-c2oc3c(OC)cc(OC)c(O)c3c(=O)c2OC)cc(OC)c1OC | – | > 100 µM | – | 22.9 µM | – | > 100 µM | – | > 100 µM | – | > 100 µM | – | > 100 µM | – | 40.2 µM | – | > 100 µM | – | > 100 µM | – | > 100 µM |
| O=C1NC2C(=CC(O)C(O)C2O)c2cc3c(cc21)OCO3 (stereo not drawn) | 0.393 µM | 9.21 µM and 3.01 µM | 0.232 µM and 0.272 µM | 7.09 µM and 4.31 µM | 0.115 µM | 0.67 µM and 1.53 µM | 0.266 µM | 2.56 µM and 1.65 µM | – | 1.5 µM | 0.802 µM | 4.14 µM and 11.4 µM | 0.352 µM and 0.105 µM | 0.574 µM and 1.41 µM | 0.156 µM | 2.59 µM and 2.29 µM | 0.152 µM | 0.561 µM and 3.38 µM | – | 2.39 µM |
| O=[N+]([O-])c1ccc(C2=Nn3c(nnc3-c3ccc(Cl)cc3)SC2)o1 | – | 17.1 µM | – | 34.1 µM | – | 12.2 µM | – | 25.9 µM | – | 12.9 µM | – | 33.8 µM | – | 2 µM | – | 23.1 µM | – | 45.1 µM | – | 10.1 µM |
| COC(=O)C1=CO[C@@H](OC2OC(CO)C(O)C(O)C2O)[C@H]2[C@@H](C)[C@@H](O)[C@@H](O)[C@@H]12 (stereo partly drawn) | – | > 100 µM | – | > 100 µM | – | > 100 µM | – | > 100 µM | – | > 100 µM | – | > 100 µM | – | > 100 µM | – | > 100 µM | – | > 100 µM | – | > 100 µM |
| N/C(=N/N=C/c1ccccc1)N/N=C\c1ccccc1 | 8.6 µM | > 100 µM | 6.37 µM | > 100 µM | 6.27 µM | 84.7 µM | 7.92 µM | 28.6 µM | 4.73 µM | > 100 µM | 19.4 µM | > 100 µM | 5.23 µM | > 100 µM | 5.6 µM | > 100 µM | 3.26 µM | > 100 µM | 10.5 µM | > 100 µM |
| COc1cccc(/C=N/NC(=O)c2ccccc2N2CCCC2)c1O | 7.05 µM | > 100 µM | 4.9 µM | 90.6 µM | 2.54 µM | > 100 µM | 3.73 µM | 19.7 µM | 3.02 µM | 36.9 µM | 9.72 µM | > 100 µM | 2.54 µM | > 100 µM | 15.5 µM | > 100 µM | 2.8 µM | > 100 µM | 7.31 µM | > 100 µM |
| COc1cc2c(cc1Cc1cccc(Cl)c1F)c(=O)c(C(=O)O)cn2[C@@H](CO)C(C)C | 2.42 µM | 5.61 µM | 4.64 µM | 26.3 µM | 2.69 µM | 10.1 µM | 2.74 µM | 10.1 µM | 5.5 µM | 18.3 µM | 4.28 µM | 15.4 µM | 3.51 µM | 11.7 µM | 3.06 µM | 13.7 µM | 4.99 µM | 19.4 µM | 3.84 µM | 19.7 µM |
| S=C(NCCNC(=S)[S][Sn]([c]1ccccc1)([c]1ccccc1)[c]1ccccc1)[S][Sn]([c]1ccccc1)([c]1ccccc1)[c]1ccccc1 | 0.0429 µM | 0.216 µM | 0.0231 µM | 0.0799 µM | 0.0152 µM | 0.0541 µM | 0.0231 µM | 0.104 µM | 0.02 µM | 0.091 µM | 0.0496 µM | 0.123 µM | 0.0265 µM | 0.0941 µM | 0.0325 µM | 0.218 µM | 0.0184 µM | 0.0976 µM | 0.0207 µM | 0.0957 µM |
| Cn1cc(C2=C(c3c4n(c5ccccc35)CCC(CN)C4)C(=O)NC2=O)c2ccccc21 (stereo not drawn) | 4 µM | 8 µM | 4.11 µM | 9.16 µM | 3.83 µM | 7.53 µM | 3 µM | 6.21 µM | 3.17 µM | 7.49 µM | 2.94 µM | 7.15 µM | 3.84 µM | 7.46 µM | 2.72 µM | 6.56 µM | 14.9 µM | 25 µM | 2.53 µM | 6.05 µM |
| CC1=NN(c2ccc(S(=O)(=O)O)cc2)C(=O)/C1=C/c1ccc(Cl)cc1 | – | > 100 µM | – | > 100 µM | – | > 100 µM | – | > 100 µM | – | > 100 µM | – | > 100 µM | – | > 100 µM | – | > 100 µM | – | > 100 µM | – | > 100 µM |
| C[C@@H]1CCC([C@@H](C)[C@H]2CC[C@H]3[C@@H]4CC[C@H]5C[C@@H](O)CC[C@]5(C)[C@H]4CC[C@]23C)=NC1 | – | > 100 µM | – | > 100 µM | – | > 100 µM | – | > 70.8 µM | – | > 61.9 µM | – | > 100 µM | – | 30.7 µM | – | > 100 µM | – | > 100 µM | – | > 84.6 µM |
| CC1(C)CC[C@]2(C(=O)O)CC[C@]3(C)C(=CC[C@@H]4[C@@]5(C)C[C@H](O)[C@H](O)[C@@](C)(C(=O)O)[C@@H]5CC[C@]43C)[C@@H]2C1 | – | > 100 µM | – | > 100 µM | – | > 100 µM | – | > 94.2 µM | – | > 100 µM | – | > 100 µM | – | > 100 µM | – | > 100 µM | – | > 100 µM | – | > 100 µM |
| CCCCCCCCC/C(=N\NC(=O)c1ccncc1)c1ccc(O)c(O)c1O | 0.184 µM | > 78.1 µM | 0.246 µM | > 100 µM | 0.0937 µM | 11.9 µM | 0.188 µM | 3.3 µM | 0.596 µM | > 93.6 µM | 0.765 µM | 78.6 µM | 0.418 µM | 23.1 µM | 0.207 µM | 35 µM | 0.093 µM | 11.4 µM | 0.116 µM | 31.5 µM |
| COc1ccc2c(c1)oc(=O)c1cc(OC)ccc12 | > 100 µM | > 100 µM | > 100 µM | > 100 µM | > 100 µM | > 100 µM | 63 µM | > 100 µM | > 100 µM | > 100 µM | > 100 µM | > 100 µM | > 100 µM | > 100 µM | > 100 µM | > 100 µM | > 100 µM | > 100 µM | > 100 µM | > 100 µM |
| O=C([O][Hg][CH2]C1OCCOC1[CH2][Hg][O]C(=O)c1ccccc1)c1ccccc1 (stereo not drawn) | 10.1 µM | 26.9 µM | 19.4 µM | 34.1 µM | 3.66 µM | 7.56 µM | 16.5 µM | 30.3 µM | 1.82 µM | 3.59 µM | 22.3 µM | 36.7 µM | 0.0642 µM | 0.23 µM | 13.2 µM | 27.9 µM | 18.7 µM | 40.7 µM | 16.3 µM | 31.7 µM |
